Measured values from PubChem BioAssay AID1845196 (Molecular Pharmacology Branch, DTP, NCI, 2023).

System: 292921-168-R tumor spheroid viability
Assay: Anticancer human tumor 292921-168-R patient-derived pancreatic carcinoma cell line growth inhibition
Settings: spheroids with HUVEC and MSC; for IC50: curve of first compound; for viability, T/C: stronger effect = lower value
Summary of the method: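 Single agents and combinations were tested on spheroids built from tumor cells plus HUVEC and hMSC, at half-log dilutions starting at or near clinical Cmax, else 10 microM; final DMSO 0.25% (v/v).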

[1] = second compound 1 µM, first compound 0.0316 µM
[2] = second compound 1 µM, first compound 0.1 µM
[3] = second compound 1 µM, first compound 0.316 µM
[4] = second compound 1 µM, first compound 1 µM
[5] = second compound 1 µM, first compound 3.16 µM
[6] = second compound 1 µM, first compound 10 µM
[7] = second compound 3.16 µM, first compound 0.0316 µM
[8] = second compound 3.16 µM, first compound 0.1 µM
[9] = second compound 3.16 µM, first compound 0.316 µM
[10] = second compound 3.16 µM, first compound 1 µM
[11] = second compound 3.16 µM, first compound 3.16 µM
[12] = second compound 3.16 µM, first compound 10 µM
[13] = second compound 10 µM, first compound 0.0316 µM
[14] = second compound 10 µM, first compound 0.1 µM
[15] = second compound 10 µM, first compound 0.316 µM
[16] = second compound 10 µM, first compound 1 µM
[17] = second compound 10 µM, first compound 3.16 µM
[18] = second compound 10 µM, first compound 10 µM
[19] = second compound 31.6 µM, first compound 0.0316 µM
[20] = second compound 31.6 µM, first compound 0.1 µM
[21] = second compound 31.6 µM, first compound 0.316 µM
[22] = second compound 31.6 µM, first compound 1 µM
[23] = second compound 31.6 µM, first compound 3.16 µM
[24] = second compound 31.6 µM, first compound 10 µM
[25] = second compound 100 µM, first compound 0.0316 µM
[26] = second compound 100 µM, first compound 0.1 µM
[27] = second compound 100 µM, first compound 0.316 µM
[28] = second compound 100 µM, first compound 1 µM
[29] = second compound 100 µM, first compound 3.16 µM
[30] = second compound 100 µM, first compound 10 µM
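Further: spheroids exposed to compounds for 7 days.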

SMILES	IC50 (second compound 1 µM) [nM]	IC50 (second compound 3.16 µM) [nM]	IC50 (second compound 10 µM) [nM]	IC50 (second compound 31.6 µM) [nM]	IC50 (second compound 100 µM) [nM]	viability, T/C [1] [%]	viability, T/C [2] [%]	viability, T/C [3] [%]	viability, T/C [4] [%]	viability, T/C [5] [%]	viability, T/C [6] [%]	viability, T/C [7] [%]	viability, T/C [8] [%]	viability, T/C [9] [%]	viability, T/C [10] [%]	viability, T/C [11] [%]	viability, T/C [12] [%]	viability, T/C [13] [%]	viability, T/C [14] [%]	viability, T/C [15] [%]	further results
CC(C)n1c(=O)n(C)c2cnc3cc(F)c(-c4ccc(OCCCN5CCCCC5)nc4)cc3c21 + Cn1nnc2c(C(N)=O)ncn2c1=O	4660	5430	5380	4640	4290	96.5	94.2	89.6	79.6	63.3	26	99.2	94.8	85.6	86.8	73.8	25.1	90.4	96.2	89.5	viability, T/C [16]: 84.2%; viability, T/C [17]: 69.8%; viability, T/C [18]: 27.4%; viability, T/C [19]: 89.9%; viability, T/C [20]: 91.2%; viability, T/C [21]: 83.6%; viability, T/C [22]: 77.9%; viability, T/C [23]: 62.8%; viability, T/C [24]: 25.9%; viability, T/C [25]: 72.2%; viability, T/C [26]: 74.1%; viability, T/C [27]: 79.6%; viability, T/C [28]: 77.2%; viability, T/C [29]: 57.9%; viability, T/C [30]: 28.1%
COc1ccc([C@@H](O)c2cc(-c3ncnc4cc(N5CCOCC5)ccc34)c(F)cc2Cl)nn1 + Cn1nnc2c(C(N)=O)ncn2c1=O	1230	1470	1290	1140	899	96.4	91.1	70.9	55.5	32.5	17.9	101	95.5	82.2	60.1	31.6	19	97.5	91.6	84.9	viability, T/C [16]: 51%; viability, T/C [17]: 35.5%; viability, T/C [18]: 18.2%; viability, T/C [19]: 95.5%; viability, T/C [20]: 92.5%; viability, T/C [21]: 81.5%; viability, T/C [22]: 51.2%; viability, T/C [23]: 30.4%; viability, T/C [24]: 18.6%; viability, T/C [25]: 93%; viability, T/C [26]: 88.5%; viability, T/C [27]: 77.7%; viability, T/C [28]: 45%; viability, T/C [29]: 30.4%; viability, T/C [30]: 18.9%
